Assays:
[1] = biological target: T1, hNTS1 (β-arrestin 2 recruitment) (Homo sapiens, UniProt P30989); experiment: BRET biosensor assay, β-arrestin 2 recruitment; type: cell-based
T1 construct: expressed in transfected cells; host or cells: CHO-K1, transient transfection with PEI
Experimental: CHO-K1 cells were cultured in DMEM-F12 supplemented with 10% FBS, 100 U/mL penicillin, 100 μg/mL streptomycin, and 20 mM HEPES at 37° C. in a humidified chamber at 5% CO2. Cells were seeded into T75 flasks at a density of 20 000 cells/cm^2; 24 h later, cells were transfected with plasmids coding for hNTS1-Green fluorescent protein 10(GFP10)/Rluc (Renilla Luciferase)II-β-arrestin 1 or hNTS1-GFP10/RlucII-β-arrestin2, or with hNTS1/Gαq-RlucII/Gβ1/IGFP10-Gγ1 or hNTS1/Gα13-RlucII/Gβ1/GFP10-Gγ1 using polyethylenimine (PEI). Cells were transferred into 96-well plates at a concentration of 50 000 cells/well 24 h after transfection and incubated at 37° C. overnight. They were then washed with PBS and 90 μL HBSS was added in each well. […] After stimulation, coelenterazine 400A was added in each well to a final concentration of 5 μM and the plate was read using filter selected for BRET2 measurement (BRET2 High efficiency filter set, λemRlucII: 410±80 nm, λemGFP10: 515±40 nm) on a Mithras 2 plate reader (Berthold Technologies, Tennessee, USA). BRET2 ratio was determined as GFP10em/RlucIIem. […] EC50 (Effective Concentration 50) values were determined using the dose response-stimulation log(agonist) vs response (three parameters) and represent the mean±SEM of at least three separate experiments, each performed in triplicate.
NTS1 is capable of activating several signaling pathways, thus the activation of Gαq, Gα13, β-arrestin 1 and β-arrestin 2 pathways was monitored. The ability of compounds of the invention to activate the NTS1 receptor was assessed using Bioluminescence Resonance Energy Transfer (BRET)-based biosensors, reporting the dissociation of G proteins (Table III, column EC50 Gq) and the recruitment of β-arrestins to the receptor (Table III, column EC50 βarr).

Plasma stability assay = type: in vitro ADME; settings: rat plasma at 37° C.
Experimental: Rat plasma was obtained by centrifugation of rat blood (13000 rpm, 5 min, 4° C.). […] Proteolytic degradation was quenched by adding 70 μL of acetonitrile/ethanol (1:1), 0.5% nicotinamide solution and vortexing. […] Data were analyzed using GraphPad Prism 7's one phase decay equation.

Sprague-Dawley rats [2] = experiment: Tail-flick test (acute pain); type: in vivo; settings: rat
Experimental: (§1) Experiments were performed with adult male Sprague-Dawley rats, weighing 225-300 g (Charles River laboratories, St-Constant, Canada). Rats were housed two per cage on Aspen shavings in a quiet room and kept on a 12 h light/dark cycle and allowed ad libitum access to food and water. The experimental procedures in this study were approved by the Animal Care Committee of Université de Sherbrooke (animal care protocol 035-13) and were in accordance with policies and directives of the Canadian Council on Animal Care.
Acute pain was assessed using the tail-flick test (Tail-Flick Analgesia meter V2.00, Colombus Instruments, Columbus, Ohio, USA). Tail-flick test measures sensitivity to a high-intensity light beam focused on the rat tail. The tail-flick apparatus was set at a light intensity of 6 and a cutoff of 10 sec. The latency, in seconds, to flick the tail out of the path of the light beam corresponds to the measure of pain sensitivity or analgesia.
Before testing, animals were individually acclimatized to manipulations and behavioral apparatus 5 min/day for three consecutive days. On the test day, latencies baseline measures were taken before drug injection to provide a mean baseline. […] The effects of compounds or saline on thermal nociception were assessed every 10 min for up to 60 min following i.t. administration.
Tail-flick latencies were converted into the percent maximal possible effect (% MPE) at the time of maxima peak of analgesia. % MPE were calculated according to the following formula: % MPE=[(Test latency)−(Saline latency)]/[(Cutoff)−(Saline latency)]×100. Data are expressed as mean±SEM of 3-8 animals for each different compound.
(§2) Data are expressed as mean±standard errors of the mean (SEM). All graphs and statistical analysis were performed using GraphPad Prism™ 7 (GraphPad software, La Jolla, Calif., USA). […] A difference in response was considered significant with p-values *p<0.05, **p<0.01, and ***p<0.001. […] Then, ED values were determined using the dose-response-stimulation log(agonist) vs response (three parameters).

Sprague-Dawley rats [3] = experiment: Body temperature (hypothermia); type: in vivo; settings: rat; text says i.v., figure legend and method i.t.
Experimental: Body temperature was measured using a thermistor probe inserted into the rectum of adult Sprague-Dawley rats. Prior to testing, animals were individually acclimatized to manipulations and thermistor probe 5 min/day for three consecutive days. On the test day, temperature was measured before (baseline) and each 10 min for up to 60 min following intrathecal drug administration of compounds. […] Changes in body temperature (Δ body temp) were determined from baseline for each time and each animal. Data represent the mean±SEM of 3-16 rats for each condition.
as §2

rNTS2 receptor = biological target: T2, rNTS2 receptor (Rattus norvegicus, UniProt Q63384); experiment: Competitive radioligand binding assay on the rNTS2 receptor; settings: 1 μM macrocycle dose; read-out: NTS2 % displ at 1 μM (radiolabeled neurotensin displaced)
T2 construct: expressed in transfected cells; host or cells: DRG-F11 cells, transient transfection, membranes
T2 sequence (Q63384 1-416): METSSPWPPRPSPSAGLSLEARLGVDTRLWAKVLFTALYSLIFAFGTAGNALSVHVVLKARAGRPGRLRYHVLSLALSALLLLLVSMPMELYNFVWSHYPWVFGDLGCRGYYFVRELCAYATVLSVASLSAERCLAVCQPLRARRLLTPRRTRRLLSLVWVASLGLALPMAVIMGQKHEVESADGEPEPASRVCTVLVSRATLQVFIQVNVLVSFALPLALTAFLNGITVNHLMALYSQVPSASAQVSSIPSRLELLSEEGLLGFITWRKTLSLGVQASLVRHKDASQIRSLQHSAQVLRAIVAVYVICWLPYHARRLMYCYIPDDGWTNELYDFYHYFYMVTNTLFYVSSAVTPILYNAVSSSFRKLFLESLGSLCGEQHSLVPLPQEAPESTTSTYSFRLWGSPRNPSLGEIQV
Experimental: DRG-F11 cells were cultured in DMEM supplemented with 10% FBS, 100 U/mL penicillin, 100 μg/mL streptomycin, and 20 mM HEPES.
Membranes were prepared by scraping cells off the culture dish with 50 mM Tris ph 7.5 and centrifuged at 15,000 g for 5 min at 4° C. The pellet was resuspended in 10 mM Tris, 1 mM EDTA pH 7.5 and sonicated for 30 s prior to be centrifugated at 15,000 g for 30 min at 4° C. The pellet was then re-suspended in binding 9 buffer. […] All other steps in binding experiments were unchanged comparing to the one using the NTS1 receptor.

rats = experiment: Blood pressure (hypotension); type: in vivo, rat; settings: 0.01 mg/kg
Experimental: Mean, systolic and diastolic arterial blood pressure and a heart rate were measured through a catheter (PE 50 filled with heparinized saline) inserted in the right carotid artery and connected to a Micro-Med™ transducer (model TDX-300, USA) linked to a blood pressure Micro-Med™ analyzer (model BPA-100c). Another catheter (PE 10 filled with heparinized saline) was inserted in the left jugular vein for injection of test compounds at 0.01 mg/kg (volume 1 mL/kg, 5-10 s) or 0.9% saline. Blood pressure was recorded each second for up to 900 seconds following intravenous injection.

Sprague-Dawley rats [4] = experiment: Formalin test (tonic pain); type: in vivo; settings: rat, i.t., 30 μg/kg
Experimental: as §1
5 min after intrathecal injection of compounds at 30 μg/kg, the rats received 50 μl of diluted 2% formaldehyde (i.e. 5% formalin; Bioshop, Burlington, Ontario) into the plantar surface of the right hind paw. […] Nociceptive behaviors were assessed using a weighted score as described previously. […] The weighted average pain intensity score ranging from 0 to 3 was then calculated by multiplying the time spent in each category by the category weight, summing these products, and dividing by the total time in a given time interval. The pain score was thus calculated from the following formula (1T1+2T2+3T3)/180 where T1, T2, and T3 are the durations (in seconds) spent in behavioral categories 1, 2, or 3, respectively, during each 180-sec block. […]
Data are expressed as mean±standard errors of the mean (SEM). […]

hNTS1 (Gαq pathway) = biological target: T3, hNTS1 (Gαq pathway) (Homo sapiens, UniProt P30989); experiment: BRET biosensor assay, Gαq dissociation; type: cell-based
T3 construct: expressed in transfected cells; host or cells: CHO-K1, transient transfection with PEI
T3 sequence (P30989 whole entry): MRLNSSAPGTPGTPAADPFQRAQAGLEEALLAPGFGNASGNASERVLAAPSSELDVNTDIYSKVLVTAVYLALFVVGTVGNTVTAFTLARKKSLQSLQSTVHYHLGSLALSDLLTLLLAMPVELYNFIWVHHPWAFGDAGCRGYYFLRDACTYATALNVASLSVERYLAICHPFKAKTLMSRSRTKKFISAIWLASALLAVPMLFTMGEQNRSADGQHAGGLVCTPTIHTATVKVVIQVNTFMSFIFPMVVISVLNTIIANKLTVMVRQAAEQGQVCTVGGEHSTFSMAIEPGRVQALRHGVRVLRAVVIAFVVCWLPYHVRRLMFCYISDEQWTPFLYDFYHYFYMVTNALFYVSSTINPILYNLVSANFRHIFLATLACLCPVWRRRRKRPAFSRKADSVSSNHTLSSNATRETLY
Experimental: CHO-K1 cells were cultured in DMEM-F12 supplemented with 10% FBS, 100 U/mL penicillin, 100 μg/mL streptomycin, and 20 mM HEPES at 37° C. in a humidified chamber at 5% CO2. Cells were seeded into T75 flasks at a density of 20 000 cells/cm^2; 24 h later, cells were transfected with plasmids coding for hNTS1-Green fluorescent protein 10(GFP10)/Rluc (Renilla Luciferase)II-β-arrestin 1 or hNTS1-GFP10/RlucII-β-arrestin2, or with hNTS1/Gαq-RlucII/Gβ1/IGFP10-Gγ1 or hNTS1/Gα13-RlucII/Gβ1/GFP10-Gγ1 using polyethylenimine (PEI). Cells were transferred into 96-well plates at a concentration of 50 000 cells/well 24 h after transfection and incubated at 37° C. overnight. […] After stimulation, coelenterazine 400A was added in each well to a final concentration of 5 μM and the plate was read using filter selected for BRET2 measurement (BRET2 High efficiency filter set, λemRlucII: 410±80 nm, λemGFP10: 515±40 nm) on a Mithras 2 plate reader (Berthold Technologies, Tennessee, USA). BRET2 ratio was determined as GFP10em/RlucIIem. […] EC50 (Effective Concentration 50) values were determined using the dose response-stimulation log(agonist) vs response (three parameters) and represent the mean±SEM of at least three separate experiments, each performed in triplicate.
NTS1 is capable of activating several signaling pathways, thus the activation of Gαq, Gα13, β-arrestin 1 and β-arrestin 2 pathways was monitored. […]

T1 sequence (P30989 whole entry): as above
T1 sequence (P32121 whole entry partner): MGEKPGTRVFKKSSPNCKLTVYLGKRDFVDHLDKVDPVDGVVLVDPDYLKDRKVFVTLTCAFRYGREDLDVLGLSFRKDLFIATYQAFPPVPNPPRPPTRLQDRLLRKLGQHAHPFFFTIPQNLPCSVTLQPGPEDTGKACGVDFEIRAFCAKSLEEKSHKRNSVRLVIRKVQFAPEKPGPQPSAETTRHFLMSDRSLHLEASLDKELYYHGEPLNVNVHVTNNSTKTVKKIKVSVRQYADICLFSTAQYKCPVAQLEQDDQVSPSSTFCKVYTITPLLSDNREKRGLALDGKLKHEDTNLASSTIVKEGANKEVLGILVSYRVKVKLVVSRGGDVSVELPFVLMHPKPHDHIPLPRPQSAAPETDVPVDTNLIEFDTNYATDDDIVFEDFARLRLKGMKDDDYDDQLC

## CCC(C)[C@H](NC(=O)[C@@H]1Cc2ccc(O)c(c2)CC=CCNCCC[C@H](N)C(=O)N[C@@H](CCCCN)C(=O)N2CCC[C@H]2C(=O)N1)C(=O)N[C@@H](CC(C)C)C(=O)O (some centres unmarked) [Compound 7, c[Orn(All)KPY(All)]IL]
[1]
  EC50: 3 ± 0.05 nM
Plasma stability assay
  half-life at […]: 30 min
Sprague-Dawley rats [2]; i.t. injection
  ED50, tail-flick latency (from AUC): 4.63 µg/kg
Sprague-Dawley rats [2]; i.t., 30 μg/kg, 10 min post-injection
  Maximal possible effect (MPE): 50%
Sprague-Dawley rats [2]; i.t., tail-flick
  Dose at which the analgesic effect reached a plateau: around 10 μg/kg
Sprague-Dawley rats [2]; intrathecal, 30 μg/kg
  Tail-flick latency versus saline/baseline: sustainably increased
Sprague-Dawley rats [3]
  ED50, hypothermia (from AUC): 1.96 μ/kg
rNTS2 receptor
  inhibition at 1 µM: 66%
rats
  Hypotension (I.V.): Triphasique
rats; rat, i.v.
  Arterial blood pressure response: triphasic
  Blood pressure drop, first phase: about −25 mmHg
  Blood pressure in phase 3: slowly returned towards baseline
Sprague-Dawley rats [4]
  Pain score during the inflammatory phase (AUC): significantly reduced
hNTS1 (Gαq pathway)
  EC50: 3 ± 0.05 nM

Source: patent US11591366B2, “Macrocyclic compounds and methods of preventing or treating pain” (SOCPRA SCIENCES SANTÉ ET HUMAINES S.E.C., priority 2017, dated 2023)
